Results published in patent US11739070B2, “C5A receptor modulators” (IDORSIA PHARMACEUTICALS LTD, priority 2018, dated 2023).

Each molecule was assayed against T1, C5AR1 (Homo sapiens, UniProt P21730) (assay: hC5a DISCO IC50 assay (PathHunter beta-arrestin, antagonist mode)). Details: CHO-K1 C5AR1 beta-arrestin cell line; antagonist vs 1-10 nM C5a agonist; geometric mean values; read-out: C5aR IC50.
T1 construct: host or cells: CHO-K1
T1 sequence (P21730 1-350): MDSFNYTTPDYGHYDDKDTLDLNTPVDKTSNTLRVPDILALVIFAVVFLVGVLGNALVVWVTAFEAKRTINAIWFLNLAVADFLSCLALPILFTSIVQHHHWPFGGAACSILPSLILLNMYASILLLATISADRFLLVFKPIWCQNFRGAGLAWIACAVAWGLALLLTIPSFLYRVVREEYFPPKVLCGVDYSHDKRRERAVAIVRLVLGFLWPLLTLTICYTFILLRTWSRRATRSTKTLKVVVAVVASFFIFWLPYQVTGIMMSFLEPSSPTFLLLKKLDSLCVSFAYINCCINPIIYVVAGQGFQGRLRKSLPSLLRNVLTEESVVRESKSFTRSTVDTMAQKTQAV
Assay type: cell-based
How it was run: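 Antagonist added first, then 1-10 nM C5a agonist; cells incubated 1.5 h at 37 °C. Beta-arrestin signal developed with PathHunter detection reagent, 45 min at RT. IC50 in nmol/l from serial antagonist dilutions, reported as geometric mean of several measurements.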

Compound | IC50
COc1cccc2c1n(Cc1nnccc1OC(C)C)c(=O)n2[C@@H]1CCN(c2c(C)cccc2F)C1 [Example 173, 1-[(R)-1-(2-Fluoro-6-methyl-phenyl)-pyrrolidin-3-yl]-3-(4-isopropoxy-pyridazin-3-ylmethyl)-4-methoxy-1,3-dihydro-benzoimidazol-2-one] | 0.107 µM
COc1cccc2c1n(Cc1nnccc1C)c(=O)n2[C@@H]1CCN(c2c(C)cccc2F)C1 [Example 174, 1-[(R)-1-(2-Fluoro-6-methyl-phenyl)-pyrrolidin-3-yl]-4-methoxy-3-(4-methyl-pyridazin-3-ylmethyl)-1,3-dihydro-benzoimidazol-2-one] | 0.544 µM
COc1ncncc1Cn1c(=O)n([C@@H]2CCN(c3c(C)cccc3F)C2)c2cccc(OC)c21 [Example 175, 1-[(R)-1-(2-Fluoro-6-methyl-phenyl)-pyrrolidin-3-yl]-4-methoxy-3-(4-methoxy-pyrimidin-5-ylmethyl)-1,3-dihydro-benzoimidazol-2-one] | 0.221 µM
COc1cccc2c1n(Cc1cncnc1C(F)(F)F)c(=O)n2[C@@H]1CCN(c2c(C)cccc2F)C1 [Example 176, 1-[(R)-1-(2-Fluoro-6-methyl-phenyl)-pyrrolidin-3-yl]-4-methoxy-3-(4-trifluoromethyl-pyrimidin-5-ylmethyl)-1,3-dihydro-benzoimidazol-2-one] | 0.048 µM
COc1cccc2c1n(Cc1nccnc1OC(C)C)c(=O)n2C1CCN(c2c(C)cccc2F)CC1 [Example 178, 1-[1-(2-Fluoro-6-methyl-phenyl)-piperidin-4-yl]-3-(3-isopropoxy-pyrazin-2-ylmethyl)-4-methoxy-1,3-dihydro-benzoimidazol-2-one] | 0.049 µM
COc1cccc2c1n(Cc1ccccc1C(F)(F)F)c(=O)n2C1CCCN(C(=O)OC(C)(C)C)CC1 (stereo not shown) [Example 179, 4-[4-Methoxy-2-oxo-3-(2-trifluoromethyl-benzyl)-2,3-dihydro-benzoimidazol-1-yl]-azepane-1-carboxylic acid tert-butyl ester] | 0.122 µM
COc1cccc2c1n(Cc1ccccc1C(F)(F)F)c(=O)n2C1CCCN(c2c(C)cccc2F)CC1 (stereo not shown) [Example 184, 1-[1-(2-Fluoro-6-methyl-phenyl)-azepan-4-yl]-4-methoxy-3-(2-trifluoromethyl-benzyl)-1,3-dihydro-benzoimidazol-2-one] | 0.036 µM
COc1cccc2c1n(Cc1ccccc1C(F)(F)F)c(=O)n2C1CCCN(c2c(C)cccc2C)CC1 (stereo not shown) [Example 185, 1-[1-(2,6-Dimethyl-phenyl)-azepan-4-yl]-4-methoxy-3-(2-trifluoromethyl-benzyl)-1,3-dihydro-benzoimidazol-2-one] | 0.036 µM
COc1cccc2c1n(Cc1ccccc1C(F)(F)F)c(=O)n2C1CC2CC1CN2C(=O)OC(C)(C)C (stereo not shown) [Example 188, 5-[4-Methoxy-2-oxo-3-(2-trifluoromethyl-benzyl)-2,3-dihydro-benzoimidazol-1-yl]-2-aza-bicyclo[2.2.1]heptane-2-carboxylic acid tert-butyl ester] | 0.313 µM
COc1cccc2c1n(Cc1ccccc1C(F)(F)F)c(=O)n2C1CC2CC1CN2c1c(C)cccc1F (stereo not shown) [Example 190, 1-[2-(2-Fluoro-6-methyl-phenyl)-2-aza-bicyclo[2.2.1]hept-5-yl]-4-methoxy-3-(2-trifluoromethyl-benzyl)-1,3-dihydro-benzoimidazol-2-one] | 0.118 µM
COc1cccc2c1n(Cc1ccccc1C(F)(F)F)c(=O)n2C1C2CC1CN(C(=O)OC(C)(C)C)C2 (stereo not shown) [Example 191, 6-[4-Methoxy-2-oxo-3-(2-trifluoromethyl-benzyl)-2,3-dihydro-benzoimidazol-1-yl]-3-aza-bicyclo[3.1.1]heptane-3-carboxylic acid tert-butyl ester] | 0.114 µM
COc1cccc2c1n(Cc1cncnc1C(C)C)c(=O)n2C1CCN(c2c(C)cccc2F)CC1 [Example 192, 1-[1-(2-Fluoro-6-methyl-phenyl)-piperidin-4-yl]-3-(4-isopropyl-pyrimidin-5-ylmethyl)-4-methoxy-1,3-dihydro-benzoimidazol-2-one] | 0.042 µM
N#Cc1cccc(F)c1N1CC[C@@H](n2c(=O)n(Cc3ccccc3C(F)(F)F)c3c(C(=O)NCCO)cccc32)C1 [Example 193, 1-[(R)-1-(2-Cyano-6-fluoro-phenyl)-pyrrolidin-3-yl]-2-oxo-3-(2-trifluoromethyl-benzyl)-2,3-dihydro-1H-benzoimidazole-4-carboxylic acid (2-hydroxy-ethyl)-amide] | 0.632 µM
COCCNC(=O)c1cccc2c1n(Cc1ccccc1C(F)(F)F)c(=O)n2[C@@H]1CCN(c2c(F)cccc2C#N)C1 [Example 194, 1-[(R)-1-(2-Cyano-6-fluoro-phenyl)-pyrrolidin-3-yl]-2-oxo-3-(2-trifluoromethyl-benzyl)-2,3-dihydro-1H-benzoimidazole-4-carboxylic acid (2-methoxy-ethyl)-amide] | 1.48 µM
COc1cccc2c1n(Cc1ccccc1C(F)(F)F)c(=O)n2C1C2CC1CN(c1c(C)cccc1F)C2 (stereo not shown) [Example 197, 1-[3-(2-Fluoro-6-methyl-phenyl)-3-aza-bicyclo[3.1.1]hept-6-yl]-4-methoxy-3-(2-trifluoromethyl-benzyl)-1,3-dihydro-benzoimidazol-2-one] | 0.074 µM
COc1cccc2c1n(Cc1ccccc1C(F)(F)F)c(=O)n2[C@@H]1CCN(c2ccccc2OC(F)(F)F)C1 [Example 201, 4-Methoxy-1-[(R)-1-(2-trifluoromethoxy-phenyl)-pyrrolidin-3-yl]-3-(2-trifluoromethyl-benzyl)-1,3-dihydro-benzoimidazol-2-one] | 0.031 µM
COCCOc1ccccc1N1CC[C@@H](n2c(=O)n(Cc3ccccc3C(F)(F)F)c3c(OC)cccc32)C1 [Example 204, 4-Methoxy-1-{(R)-1-[2-(2-methoxy-ethoxy)-phenyl]-pyrrolidin-3-yl}-3-(2-trifluoromethyl-benzyl)-1,3-dihydro-benzoimidazol-2-one] | 0.03 µM

The next molecules have a lower IC50 than those just listed; values first:

IC50 | Compound
0.024 µM | COc1cccc2c1n(Cc1nccnc1OC(C)C)c(=O)n2[C@@H]1CCN(c2c(C)cccc2F)C1 [Example 177, 1-[(R)-1-(2-Fluoro-6-methyl-phenyl)-pyrrolidin-3-yl]-3-(3-isopropoxy-pyrazin-2-ylmethyl)-4-methoxy-1,3-dihydro-benzoimidazol-2-one]
0.009 µM | COc1cccc2c1n(Cc1cnccc1C(C)C)c(=O)n2[C@@H]1CCN(c2c(C)cccc2F)C1 [Example 180, 1-[(R)-1-(2-Fluoro-6-methyl-phenyl)-pyrrolidin-3-yl]-3-(4-isopropyl-pyridin-3-ylmethyl)-4-methoxy-1,3-dihydro-benzoimidazol-2-one]
0.022 µM | COc1cccc2c1n(Cc1cnccc1C(C)C)c(=O)n2C1CCN(c2c(C)cccc2F)CC1 [Example 181, 1-[1-(2-Fluoro-6-methyl-phenyl)-piperidin-4-yl]-3-(4-isopropyl-pyridin-3-ylmethyl)-4-methoxy-1,3-dihydro-benzoimidazol-2-one]
0.009 µM | COc1cccc2c1n(Cc1ncccc1OC(C)C)c(=O)n2[C@@H]1CCN(c2c(C)cccc2F)C1 [Example 182, 1-[(R)-1-(2-Fluoro-6-methyl-phenyl)-pyrrolidin-3-yl]-3-(3-isopropoxy-pyridin-2-ylmethyl)-4-methoxy-1,3-dihydro-benzoimidazol-2-one]
0.014 µM | COc1cccc2c1n(Cc1ncccc1OC(C)C)c(=O)n2C1CCN(c2c(C)cccc2F)CC1 [Example 183, 1-[1-(2-Fluoro-6-methyl-phenyl)-piperidin-4-yl]-3-(3-isopropoxy-pyridin-2-ylmethyl)-4-methoxy-1,3-dihydro-benzoimidazol-2-one]
0.014 µM | COc1cccc2c1n(Cc1cncnc1C(C)C)c(=O)n2[C@@H]1CCN(c2c(C)cccc2F)C1 [Example 186, 1-[(R)-1-(2-Fluoro-6-methyl-phenyl)-pyrrolidin-3-yl]-3-(4-isopropyl-pyrimidin-5-ylmethyl)-4-methoxy-1,3-dihydro-benzoimidazol-2-one]
0.026 µM | COc1cccc2c1n(Cc1nccnc1C(C)C)c(=O)n2C1CCN(c2c(C)cccc2F)CC1 [Example 187, 1-[1-(2-Fluoro-6-methyl-phenyl)-piperidin-4-yl]-3-(3-isopropyl-pyrazin-2-ylmethyl)-4-methoxy-1,3-dihydro-benzoimidazol-2-one]
0.013 µM | COc1cccc2c1n(Cc1nccnc1C(C)C)c(=O)n2[C@@H]1CCN(c2c(C)cccc2F)C1 [Example 189, 1-[(R)-1-(2-Fluoro-6-methyl-phenyl)-pyrrolidin-3-yl]-3-(3-isopropyl-pyrazin-2-ylmethyl)-4-methoxy-1,3-dihydro-benzoimidazol-2-one]
0.02 µM | COc1cccc2c1n(Cc1cccnc1C(F)(F)F)c(=O)n2[C@@H]1CCN(c2c(C)cccc2F)C1 [Example 195, 1-[(R)-1-(2-Fluoro-6-methyl-phenyl)-pyrrolidin-3-yl]-4-methoxy-3-(2-trifluoromethyl-pyridin-3-ylmethyl)-1,3-dihydro-benzoimidazol-2-one]
0.002 µM | COc1cccc2c1n(Cc1ncccc1C(F)(F)F)c(=O)n2[C@@H]1CCN(c2c(C)cccc2F)C1 [Example 202, 1-[(R)-1-(2-Fluoro-6-methyl-phenyl)-pyrrolidin-3-yl]-4-methoxy-3-(3-trifluoromethyl-pyridin-2-ylmethyl)-1,3-dihydro-benzoimidazol-2-one]
0.006 µM | COc1cccc2c1n(Cc1cnccc1C(F)(F)F)c(=O)n2[C@@H]1CCN(c2c(C)cccc2F)C1 [Example 203, 1-[(R)-1-(2-Fluoro-6-methyl-phenyl)-pyrrolidin-3-yl]-4-methoxy-3-(4-trifluoromethyl-pyridin-3-ylmethyl)-1,3-dihydro-benzoimidazol-2-one]
